In ChEMBL document CHEMBL5500418, “Structure-Activity Study on Substituted, Core-Extended, and Dyad Naphthalene Diimide G-Quadruplex Ligands Leading to Potent Antitrypanosomal Agents” (J Med Chem, 2024):

system: not listed separately; assay: Cytotoxicity against human MRC5 cells incubated for 72 hrs by alamar blue staining based assay; type: toxicity, cell-based; details: not given

| Structure (SMILES) | IC50 at 72 h |
| --- | --- |
| CN(C)CCCNc1cc2c3c(c(NCCCN(C)C)cc4c3c1C(=O)N(CCCN(C)C)C4=O)C(=O)N(CCCN(C)C)C2=O | 2100 nM |
| CN(C)CCCN1C(=O)c2ccc3c4c(c(NCCCO)cc(c24)C1=O)C(=O)N(CCCN(C)C)C3=O | 5000 nM |
| CCCNC(=O)c1ccc2[nH]c3c([nH]c2c1)c1c(=O)n(CCCN(C)C)c(=O)c2ccc4c(=O)n(CCCN(C)C)c(=O)c3c4c21 | 38 nM |
| CN(C)CCCNc1cc2c3c(ccc4c3c1C(=O)N(CCCN(C)C)C4=O)C(=O)N(CCCN(C)C)C2=O | > 100000 nM |
| O=C1c2ccc3c4c(c(NCCOCCO)cc(c24)C(=O)N1CCOCCO)C(=O)N(CCOCCO)C3=O | > 100000 nM |

system: Trypanosoma brucei; assay: Antitrypanosomal activity against bloodstream-stage Trypanosoma brucei measured after 72 hrs by alamar blue assay; type: functional, organism-based; details: not given

| Structure (SMILES) | IC50 |
| --- | --- |
| CN(C)CCCNc1cc2c3c(c(NCCCN(C)C)cc4c3c1C(=O)N(CCCN(C)C)C4=O)C(=O)N(CCCN(C)C)C2=O | 54 nM |
| CN(C)CCCN1C(=O)c2ccc3c4c(c(NCCCO)cc(c24)C1=O)C(=O)N(CCCN(C)C)C3=O | 57 nM |
| CCCNC(=O)c1ccc2[nH]c3c([nH]c2c1)c1c(=O)n(CCCN(C)C)c(=O)c2ccc4c(=O)n(CCCN(C)C)c(=O)c3c4c21 | 0.09 nM |
| CN(C)CCCNc1cc2c3c(ccc4c3c1C(=O)N(CCCN(C)C)C4=O)C(=O)N(CCCN(C)C)C2=O | 21500 nM |
| O=C1c2ccc3c4c(c(NCCOCCO)cc(c24)C(=O)N1CCOCCO)C(=O)N(CCOCCO)C3=O | 9500 nM |

system: Leishmania major; assay: Antileishmanial activity against Leishmania major promastigotes MHOM/IL/80/Friedlin measured after 72 hrs by MTT assay; type: functional, organism-based; details: not given

| Structure (SMILES) | IC50 |
| --- | --- |
| CN(C)CCCNc1cc2c3c(c(NCCCN(C)C)cc4c3c1C(=O)N(CCCN(C)C)C4=O)C(=O)N(CCCN(C)C)C2=O | 11800 nM |
| CN(C)CCCN1C(=O)c2ccc3c4c(c(NCCCO)cc(c24)C1=O)C(=O)N(CCCN(C)C)C3=O | 2490 nM |
| CCCNC(=O)c1ccc2[nH]c3c([nH]c2c1)c1c(=O)n(CCCN(C)C)c(=O)c2ccc4c(=O)n(CCCN(C)C)c(=O)c3c4c21 | 310 nM |
| CN(C)CCCNc1cc2c3c(ccc4c3c1C(=O)N(CCCN(C)C)C4=O)C(=O)N(CCCN(C)C)C2=O | > 100000 nM |
| O=C1c2ccc3c4c(c(NCCOCCO)cc(c24)C(=O)N1CCOCCO)C(=O)N(CCOCCO)C3=O | 14300 nM |

system: not listed separately; assay: Selectivity index, ratio of IC50 for human MRC5 to IC50 for Trypanosoma brucei measured after 72 hrs by alamar blue assay; type: toxicity; details: MRC5 cells, read-out: Ratio IC50

| Structure (SMILES) | selectivity ratio at 72 h |
| --- | --- |
| CN(C)CCCNc1cc2c3c(c(NCCCN(C)C)cc4c3c1C(=O)N(CCCN(C)C)C4=O)C(=O)N(CCCN(C)C)C2=O | 38.9 |
| CN(C)CCCN1C(=O)c2ccc3c4c(c(NCCCO)cc(c24)C1=O)C(=O)N(CCCN(C)C)C3=O | 87.7 |
| CCCNC(=O)c1ccc2[nH]c3c([nH]c2c1)c1c(=O)n(CCCN(C)C)c(=O)c2ccc4c(=O)n(CCCN(C)C)c(=O)c3c4c21 | 422 |
| CN(C)CCCNc1cc2c3c(ccc4c3c1C(=O)N(CCCN(C)C)C4=O)C(=O)N(CCCN(C)C)C2=O | > 4.6 |
| O=C1c2ccc3c4c(c(NCCOCCO)cc(c24)C(=O)N1CCOCCO)C(=O)N(CCOCCO)C3=O | > 10.5 |

system: not listed separately; assay: Selectivity index, ratio of IC50 for human MRC5 to IC50 for Leishmania major measured after 72 hrs by MTT assay; type: toxicity; details: MRC5 cells, read-out: Ratio IC50

| Structure (SMILES) | selectivity ratio at 72 h |
| --- | --- |
| CN(C)CCCNc1cc2c3c(c(NCCCN(C)C)cc4c3c1C(=O)N(CCCN(C)C)C4=O)C(=O)N(CCCN(C)C)C2=O | 0.18 |
| CN(C)CCCN1C(=O)c2ccc3c4c(c(NCCCO)cc(c24)C1=O)C(=O)N(CCCN(C)C)C3=O | 2 |
| CCCNC(=O)c1ccc2[nH]c3c([nH]c2c1)c1c(=O)n(CCCN(C)C)c(=O)c2ccc4c(=O)n(CCCN(C)C)c(=O)c3c4c21 | 0.12 |
| O=C1c2ccc3c4c(c(NCCOCCO)cc(c24)C(=O)N1CCOCCO)C(=O)N(CCOCCO)C3=O | > 6.98 |

system: Trypanosoma brucei; assay: Trypanocidal activity against bloodstream-stage Trypanosoma brucei measured after 72 hrs by CellTiter-Glo luminescent assay; type: functional, organism-based; details: not given

| Structure (SMILES) | IC50 |
| --- | --- |
| CCCNC(=O)c1ccc2[nH]c3c([nH]c2c1)c1c(=O)n(CCCN(C)C)c(=O)c2ccc4c(=O)n(CCCN(C)C)c(=O)c3c4c21 | 0.011 nM |

system: not listed separately; assay: Selectivity index, ratio of IC50 for human MRC5 to IC50 for Trypanosoma brucei measured after 72 hrs by CellTiter-Glo luminescent assay; type: toxicity; details: MRC5 cells, read-out: Ratio IC50

| Structure (SMILES) | selectivity ratio at 72 h |
| --- | --- |
| CCCNC(=O)c1ccc2[nH]c3c([nH]c2c1)c1c(=O)n(CCCN(C)C)c(=O)c2ccc4c(=O)n(CCCN(C)C)c(=O)c3c4c21 | 3450 |

system: Quadruplex DNA; assay: Stabilization of 22AG G4 DNA (unknown origin) assessed as change in melting temperature at 1 uM by FRET assay; type: nucleic-acid assay; details: not given

| Structure (SMILES) | ΔTm |
| --- | --- |
| CN(C)CCCNc1cc2c3c(c(NCCCN(C)C)cc4c3c1C(=O)N(CCCN(C)C)C4=O)C(=O)N(CCCN(C)C)C2=O | > 30 °C |
| CN(C)CCCN1C(=O)c2ccc3c4c(c(NCCCO)cc(c24)C1=O)C(=O)N(CCCN(C)C)C3=O | 5 °C |
| CCCNC(=O)c1ccc2[nH]c3c([nH]c2c1)c1c(=O)n(CCCN(C)C)c(=O)c2ccc4c(=O)n(CCCN(C)C)c(=O)c3c4c21 | > 30 °C |
| CN(C)CCCNc1cc2c3c(ccc4c3c1C(=O)N(CCCN(C)C)C4=O)C(=O)N(CCCN(C)C)C2=O | 9.6 °C |
| O=C1c2ccc3c4c(c(NCCOCCO)cc(c24)C(=O)N1CCOCCO)C(=O)N(CCOCCO)C3=O | -1.4 °C |

system: Quadruplex DNA; assay: Stabilization of Trypanosoma brucei ERB1 G4 DNA assessed as change in melting temperature at 1 uM by FRET assay; type: nucleic-acid assay; details: not given

| Structure (SMILES) | ΔTm |
| --- | --- |
| CN(C)CCCNc1cc2c3c(c(NCCCN(C)C)cc4c3c1C(=O)N(CCCN(C)C)C4=O)C(=O)N(CCCN(C)C)C2=O | > 30 °C |
| CN(C)CCCN1C(=O)c2ccc3c4c(c(NCCCO)cc(c24)C1=O)C(=O)N(CCCN(C)C)C3=O | 12 °C |
| CCCNC(=O)c1ccc2[nH]c3c([nH]c2c1)c1c(=O)n(CCCN(C)C)c(=O)c2ccc4c(=O)n(CCCN(C)C)c(=O)c3c4c21 | > 30 °C |
| CN(C)CCCNc1cc2c3c(ccc4c3c1C(=O)N(CCCN(C)C)C4=O)C(=O)N(CCCN(C)C)C2=O | 19 °C |
| O=C1c2ccc3c4c(c(NCCOCCO)cc(c24)C(=O)N1CCOCCO)C(=O)N(CCOCCO)C3=O | 2.9 °C |

system: Quadruplex DNA; assay: Stabilization of 22AG G4 DNA (unknown origin) assessed as change in melting temperature at 265 nm wavelength at 5 uM by CD spectroscopy; type: nucleic-acid assay; details: not given

| Structure (SMILES) | ΔTm |
| --- | --- |
| CCCNC(=O)c1ccc2[nH]c3c([nH]c2c1)c1c(=O)n(CCCN(C)C)c(=O)c2ccc4c(=O)n(CCCN(C)C)c(=O)c3c4c21 | > 30 °C |

system: Quadruplex DNA; assay: Stabilization of 22AG G4 DNA (unknown origin) assessed as change in melting temperature at 292 nm wavelength at 5 uM by CD spectroscopy; type: nucleic-acid assay; details: not given

| Structure (SMILES) | ΔTm |
| --- | --- |
| CCCNC(=O)c1ccc2[nH]c3c([nH]c2c1)c1c(=O)n(CCCN(C)C)c(=O)c2ccc4c(=O)n(CCCN(C)C)c(=O)c3c4c21 | 14.8 °C |

system: Quadruplex DNA; assay: Stabilization of Trypanosoma brucei ERB1 G4 DNA assessed as change in melting temperature at 265 nm wavelength at 5 uM by CD spectroscopy; type: nucleic-acid assay; details: not given

| Structure (SMILES) | ΔTm |
| --- | --- |
| CCCNC(=O)c1ccc2[nH]c3c([nH]c2c1)c1c(=O)n(CCCN(C)C)c(=O)c2ccc4c(=O)n(CCCN(C)C)c(=O)c3c4c21 | 22.7 °C |

system: Quadruplex DNA; assay: Stabilization of Trypanosoma brucei ERB1 G4 DNA assessed as change in melting temperature at 292 nm wavelength at 5 uM by CD spectroscopy; type: nucleic-acid assay; details: not given

| Structure (SMILES) | ΔTm |
| --- | --- |
| CCCNC(=O)c1ccc2[nH]c3c([nH]c2c1)c1c(=O)n(CCCN(C)C)c(=O)c2ccc4c(=O)n(CCCN(C)C)c(=O)c3c4c21 | 26 °C |

system: not listed separately; assay: Drug uptake in human MRC5 cells at 4 to 37 degreeC at 5 uM after 30 to 120 mins by flow cytometry analysis; type: ADME, cell-based; details: mrc5, 5 µM, time 30-120 min

| Structure (SMILES) | Drug uptake |
| --- | --- |
| CCCNC(=O)c1ccc2[nH]c3c([nH]c2c1)c1c(=O)n(CCCN(C)C)c(=O)c2ccc4c(=O)n(CCCN(C)C)c(=O)c3c4c21 | Active |

system: not listed separately; assay: Drug uptake in Trypanosoma brucei at 4 to 37 degreeC at 5 uM after 30 to 120 mins by flow cytometry analysis; type: ADME; details: time 30-120 min

| Structure (SMILES) | Drug uptake |
| --- | --- |
| CCCNC(=O)c1ccc2[nH]c3c([nH]c2c1)c1c(=O)n(CCCN(C)C)c(=O)c2ccc4c(=O)n(CCCN(C)C)c(=O)c3c4c21 | 20% |

system: not listed separately; assay: Drug localization in human MRC5 cells nucleus at 37 degreeC at 5 uM after 30 mins by DAPI staining based fluorescence microscopy analysis; type: ADME, subcellular; details: mrc5, 0.5 h

| Structure (SMILES) | Drug uptake |
| --- | --- |
| CCCNC(=O)c1ccc2[nH]c3c([nH]c2c1)c1c(=O)n(CCCN(C)C)c(=O)c2ccc4c(=O)n(CCCN(C)C)c(=O)c3c4c21 | Active |

system: not listed separately; assay: Drug localization in Trypanosoma brucei nucleus at 37 degreeC at 5 uM after 30 mins by DAPI staining based fluorescence microscopy analysis; type: ADME, subcellular; details: 0.5 h

| Structure (SMILES) | Drug uptake |
| --- | --- |
| CCCNC(=O)c1ccc2[nH]c3c([nH]c2c1)c1c(=O)n(CCCN(C)C)c(=O)c2ccc4c(=O)n(CCCN(C)C)c(=O)c3c4c21 | Active |

system: not listed separately; assay: Drug localization in human MRC5 cells cytoplasm at 37 degreeC at 5 uM after 30 mins by DAPI staining based fluorescence microscopy analysis; type: ADME, subcellular; details: mrc5, 0.5 h

| Structure (SMILES) | Drug uptake |
| --- | --- |
| CCCNC(=O)c1ccc2[nH]c3c([nH]c2c1)c1c(=O)n(CCCN(C)C)c(=O)c2ccc4c(=O)n(CCCN(C)C)c(=O)c3c4c21 | Not Active |

system: not listed separately; assay: Drug localization in Trypanosoma brucei kinetoplast at 37 degreeC at 5 uM after 30 mins by DAPI staining based fluorescence microscopy analysis; type: ADME, subcellular; details: 0.5 h

| Structure (SMILES) | Drug uptake |
| --- | --- |
| CCCNC(=O)c1ccc2[nH]c3c([nH]c2c1)c1c(=O)n(CCCN(C)C)c(=O)c2ccc4c(=O)n(CCCN(C)C)c(=O)c3c4c21 | Not Active |

system: not listed separately; assay: Drug localization in Trypanosoma brucei at 5 uM after 120 mins by DAPI staining based fluorescence microscopy analysis; type: ADME; details: 2 h

| Structure (SMILES) | Drug uptake |
| --- | --- |
| CCCNC(=O)c1ccc2[nH]c3c([nH]c2c1)c1c(=O)n(CCCN(C)C)c(=O)c2ccc4c(=O)n(CCCN(C)C)c(=O)c3c4c21 | Active |
